From patent publication US8999956B2, “N-[(het)arylalkyl)] pyrazole(thio)carboxamides and their heterosubstituted analogues” (Bayer Intellectual Property GmbH, priority 2010, dated 2015)
Values joined by “and” are separate entries in the source; they are usually repeats but may differ in a detail not shown here. Identical values can stand only once. Like-named read-outs stand apart in the source and are kept apart here.

Key:
Septoria tritici = assay: In vivo preventive test on Septoria tritici (wheat); conditions: 500 ppm of active ingredient, evaluated 21 days after inoculation
Method in brief: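 Compound formulated in N,N-dimethylacetamide with alkylaryl polyglycol ether emulsifier and diluted in water to the stated rate. Young wheat plants sprayed preventively; after the deposit dried, they were inoculated with a Septoria tritici spore suspension.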

[1] = tested on: Blumeria graminis fsp. hordei; assay: In vivo preventive test on Blumeria graminis (barley); conditions: 500 ppm of active ingredient, evaluated 7 days after inoculation
Method in brief: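 Active compound taken up in N,N-dimethylacetamide with alkylaryl polyglycol ether emulsifier, then diluted in water to the desired concentration. Young barley plants sprayed at the stated application rate; once the coating had dried, plants were dusted with Blumeria graminis f. sp. hordei spores.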

Sphaerotheca fuliginea = assay: In vivo preventive test on Sphaerotheca fuliginea (cucumber); conditions: 500 ppm of active ingredient, evaluated 7 days after inoculation
Method in brief: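 Young cucumber plants sprayed with compound (in DMF with alkylarylpolyglycolether emulsifier, diluted in water) at the stated application rate. Inoculated one day later with aqueous Sphaerotheca fuliginea spore suspension. Plants then held in greenhouse at approximately 23° C and approximately 70% relative humidity.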

Puccinia triticina = assay: In vivo preventive test on Puccinia triticina (wheat); conditions: Table K, 500 ppm of active ingredient, evaluated 8 days after inoculation
Fusarium graminearum = conditions: in vivo
Aspergillus parasiticus = assay: microbe, parasite or virus in culture; format: cell-based
[2] = log P by HPLC on reversed-phase column (EEC Directive 79/831 Annex V.A8); format: physicochemical
Description: In table 1, the log P values were determined in accordance with EEC Directive 79/831 Annex V.A8 by HPLC (High Performance Liquid Chromatography) on a reversed-phase column (C18), using the method described below: Temperature: 40° C.; […]

Pyrenophora teres = assay: In vivo preventive test on Pyrenophora teres (barley); conditions: 500 ppm of active ingredient, evaluated 7-9 days after inoculation
Method in brief: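 Compound formulated in N,N-dimethylformamide with alkylaryl polyglycol ether emulsifier and diluted in water, then sprayed on young barley plants at the stated application rate. Plants inoculated one day later with aqueous Pyrenophora teres spore suspension, testing preventive protection.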

Leptosphaeria nodorum = assay: In vivo preventive test on Leptosphaeria nodorum (wheat); conditions: 500 ppm of active ingredient, evaluated 7-9 days after inoculation
Method in brief: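 Compound formulated in N,N-dimethylacetamide with alkylaryl polyglycol ether emulsifier and diluted with water. Young wheat plants were sprayed at the stated application rate, then inoculated one day later with an aqueous spore suspension of L. nodorum.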

[3] = tested on: aflatoxines produced by Aspergillus parasiticus; assay: microbe, parasite or virus in culture; format: cell-based
Uromyces appendiculatus = assay: In vivo preventive test on Uromyces appendiculatus (beans); conditions: 100 ppm of active ingredient, evaluated 10 days after inoculation
Method in brief: (§1)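 Young plants sprayed preventively at the stated application rate with compound dissolved in acetone/N,N-dimethylacetamide plus alkylaryl polyglycol ether emulsifier and diluted with water to the desired concentration.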

Botrytis cinerea = assay: In vivo preventive test on Botrytis cinerea (beans)
Method in brief: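 Young bean plants sprayed preventively with compound in acetone/dimethylacetamide/emulsifier diluted in water; after drying, each leaf inoculated with 2 agar pieces bearing Botrytis cinerea. Kept dark at 20° C, 100% humidity; lesion size scored at 2 days as % efficacy (0% = untreated, 100% = no disease).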

Alternaria solani = assay: In vivo preventive test on Alternaria solani (tomato); conditions: 500 ppm of active ingredient, evaluated 7 days after inoculation
Method in brief: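 Young tomato plants sprayed preventively with compound in DMF/alkylarylpolyglycolether emulsion diluted in water to the stated rate. Inoculation with aqueous Alternaria solani spore suspension one day after treatment.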

Venturia inaequalis = assay: In vivo preventive test on Venturia inaequalis (apple scab); conditions: 100 ppm of active ingredient, evaluated 10 days after inoculation
Method in brief: as §1

[4] = tested on: Fusarium nivale (var. majus); assay: In vivo preventive test on Fusarium nivale (wheat); conditions: 500 ppm of active ingredient, evaluated 5 days after inoculation
Method in brief: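 Young wheat plants sprayed preventively with compound formulated in N,N-dimethylacetamide plus alkylaryl polyglycol ether emulsifier, diluted in water to the stated application rate. After drying, plants were lightly injured by sandblast, then sprayed with a Fusarium nivale (var. majus) conidia suspension.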

Cochliobolus miyabeanus = assay: In vivo protective test on Cochliobolus miyabeanus (rice); conditions: Table M, 250 ppm of active ingredient, evaluated 4 days after inoculation
Phakopsora pachyrhizi = assay: In vivo protective test on Phakopsora pachyrhizi (soybeans); conditions: Table N, 250 ppm of active ingredient, evaluated 11 days after inoculation
Pyricularia oryzae = conditions: in vivo
[5] = Table L, 500 ppm of active ingredient, lesion size 2 days after inoculation

Row | Structure (SMILES) | Efficacy (Septoria tritici) [%] | Efficacy [1] [%] | Efficacy (Sphaerotheca fuliginea) [%] | Efficacy (Puccinia triticina) [%] | Efficacy (Fusarium graminearum) [%] | logP [2] | Efficacy (Pyrenophora teres) [%] | Efficacy (Leptosphaeria nodorum) | % Inhibition of fungal growth at 50 μM (Aspergillus parasiticus) [%] | Efficacy (Uromyces appendiculatus) [%] | Efficacy (Alternaria solani) [%] | % Inhibition of Aflatoxin at 50 μM [3] [%] | Efficacy (Venturia inaequalis) [%] | Efficacy (Phakopsora pachyrhizi) [%] | also measured
1 | Cn1nc(C(F)F)c(C(=O)N(CCOc2c(Cl)cccc2Cl)C2CC2)c1F [Example 162] | 90 | 100 | 95 | 80 | 100 | 3.55 | 95 | 90% |  |  |  |  |  |  | % Inhibition of fungal growth at 50 μM (Aspergillus parasiticus; 50 µM): 100%; % Inhibition of Aflatoxin at 50 μM ([3]; 50 µM): 100%
2 | Cn1nc(C(F)F)c(C(=O)N(CC#Cc2ccccc2)C2CC2)c1F [Example 271] | 88 | 78 | 98 | 89 | 93 | 3.19 | 95 | 90% |  |  |  |  |  |  | 
3 | Cn1nc(C(F)F)c(C(=O)N(C2CC2)C2CCCCC2Cc2ccccc2)c1F (mixture of isomers) [Example 243] | 100 | 100 | 100 | 100 | 100 |  | 100 | 100% | 100 | 98 | 100 | 100 | 100 |  | Efficacy (Botrytis cinerea; [5]): 90%
4 | CC(C)CC(C)C1CCCC1NC(=O)c1c(C(F)F)nn(C)c1Cl (mixture of isomers) [Example 311] | 93 | 100 | 90 | 100 |  |  | 100 |  |  | 100 | 100 |  | 100 | 98 | Efficacy [4]: 100%; Efficacy (Cochliobolus miyabeanus): 97%; % Inhibition of fungal growth at 50 μM (Aspergillus parasiticus; 50 µM): 97%; % Inhibition of Aflatoxin at 50 μM ([3]; 50 µM): 100%; Efficacy (Pyricularia oryzae): 96%
5 | Cn1nc(C(F)F)c(C(=O)NC2CCCCC2CCC(C)(C)C)c1F (single isomer, unassigned) [Example 357] | 100 | 100 | 100 | 100 |  | 4.50 isomer A | 100 |  |  | 100 | 100 |  | 100 | 85 | Efficacy [4]: 100%; Efficacy (Cochliobolus miyabeanus): 93%; Efficacy (Pyricularia oryzae): 97%
6 | CC(C)CC(C)C1CCCCC1NC(=O)c1c(C(F)F)nn(C)c1F (stereo not drawn) [Example 339] | 100 | 100 | 100 | 100 |  | 4.54 | 94 | 70% and 94% | 100 | 100 | 100 | 100 | 100 | 98 | Efficacy [4]: 100%; Efficacy (Cochliobolus miyabeanus): 92%; Efficacy (Pyricularia oryzae): 98%
7 | Cn1nc(C(F)F)c(C(=O)N(C[Si](C)(C)Cc2ccccc2)C2CC2)c1F [Example 288] | 90 | 100 | 94 | 95 | 100 | 4.03 | 100 | 100% | 99 | 100 | 100 | 100 | 100 |  | Efficacy (Botrytis cinerea; [5]): 100%
8 | Cn1nc(C(F)F)c(C(=O)N(C2CC2)C2CCCCC2Oc2ccccc2)c1F (stereo not drawn) [Example 244] | 100 | 100 | 100 | 100 | 100 | 3.89 | 95 | 95% |  | 100 | 100 |  | 100 | 98 | % Inhibition of fungal growth at 50 μM (Aspergillus parasiticus; 50 µM): 82%; Efficacy (Botrytis cinerea; 500 ppm of active ingredient, lesion size 2 days after inoculation): at least 85%; Efficacy (Botrytis cinerea; Table L4, dose 500 ppm, comparison with des-fluoro analogue): 88%; Efficacy (Botrytis cinerea; [5]): 88%; % Inhibition of Aflatoxin at 50 μM ([3]; 50 µM): 99%
9 | CC(COc1ccc(Cl)cc1Cl)N(C(=O)c1c(C(F)F)nn(C)c1F)C1CC1 (stereo not drawn) [Example 187] | 100 | 100 | 100 | 95 | 100 | 4.16 | 100 | 90% | 100 | 95 |  | 100 | 100 |  | 
10 | Cn1nc(C(F)F)c(C(=O)N(CCOc2c(Cl)cccc2Cl)C2CC2)c1Cl [Example 161] | 80 | 100 |  | 90 | 86 | 3.69 | 100 | 90% |  |  |  |  |  |  | 
11 | CC(CCc1ccc(Cl)c(Cl)c1)N(C(=O)c1c(C(F)F)nn(C)c1F)C1CC1 (racemic) [Example 129] | 80 | 100 | 100 | 70 | 100 | 4.44 | 100 | 100% | 100 | 99 | 100 | 100 | 100 |  | 
12 | CC(CCc1ccccc1C(F)(F)F)N(C(=O)c1c(C(F)F)nn(C)c1F)C1CC1 (stereo not drawn) [Example 221] | 100 | 100 | 100 | 100 | 100 | 4.09 | 95 |  | 100 | 100 | 100 | 100 | 100 | 80 | 
